The nature of data set [1]: absorbability (bioavailability) of oral formulations in a dog. The following applies: in vivo, during fasting. The source says: (§1) On the other hand, the present inventors have heretofore conducted various studies on oral formulations of 4-bromo-6-[3-(4-chlorophenyl)propoxy]-5-(3-pyridylmethylamino)-3(2H)-pyridazinone (hereinafter referred to simply as Compound A) or its salt.

A short description of data set [2]: solubility in water as a function of pH. The data set is classed as physicochemical.
Excerpt: as §1

Data set [3] in a line: elution test (paddle method, Japanese Pharmacopoeia Disintegration Test Solutions 1 and 2). The data set is classed as physicochemical. The method, then: The test conditions are as follows. Test solutions: Japanese Pharmacopoeia Disintegration Test Solution 1 (pH 1.2) 900 mL, Japanese Pharmacopoeia Disintegration Test Solution 2 900 mL (pH 6.8)+0.1% Tween 80 Paddle rotational speed: 50 rpm Liquid temperature: 37° C.

A word on the bioavailability: it is dose-corrected exposure relative to a reference, in per cent.

Where a name gives a salt, the structure may show the parent alone. Some results are limits rather than exact numbers.

With `O=c1[nH]nc(OCCCc2ccc(Cl)cc2)c(NCc2cccnc2)c1Br` [Compound A, 4-bromo-6-[3-(4-chlorophenyl)propoxy]-5-(3-pyridylmethylamino)-3(2H)-pyridazinone], the bioavailability in data set [1] is about 10%. In addition, the “solubility in water, dependence on pH” value in data set [2] (boundary in the vicinity of pH4.0) was “decreases in the vicinity of pH4.0 as a boundary”. In addition, the solubility in water result in data set [2] (in the vicinity of the pH in the intestine) was “hardly soluble in water”.
As to `O=c1[nH]nc(OCCCc2ccc(Cl)cc2)c(NCc2cccnc2)c1Br` [hydrochloride of Compound A, 4-bromo-6-[3-(4-chlorophenyl)propoxy]-5-(3-pyridylmethylamino)-3(2H)-pyridazinone], the “difference in the elution rate between Solution 1 (pH 1.2) and Solution 2 (pH 6.8) containing 0.1% Tween 80” value in data set [3] (900 mL, 37° C., paddle 50 rpm) is reported as “substantial difference”. In data set [3] (Japanese Pharmacopoeia Disintegration Test Solution 2 (pH 6.8) + 0.1% Tween 80, after 6 hours, 37° C., paddle 50 rpm), the elution rate is given as under 20%. The “solubility indicated by the elution test” value in data set [3] (in the vicinity of the pH in the intestine (Solution 2 + 0.1% Tween 80)) is recorded as “hardly soluble”.

Values taken from patent US20090117190A1, “SUSTAINED-RELEASE PREPARATION” (Nissan Chemical Industries, Ltd., priority 2005, published 2009).
